Values after ≈ are worked out from the molar mass of the structure shown. Counter-ions that a name gives are not always drawn. Each block holds one compound with its values, some of them ahead of it. Non-standard residues stand in square brackets, D forms with d. Residues, ends and D or L forms follow the SMILES beside them. *: point of attachment. Galloyl = O=C(c1cc(O)c(O)c(O)c1)*
What was measured:
[1] = system: UEA-1 binding sites on Caco-2 cell membrane preparations; test: Single tier competition assay: inhibition of biotinylated UEA-1 binding, compound and biotinylated UEA-1 incubated together; parameters: species or system human; conditions: for Av % Inhibition / Avg % Inhibtion: Single Tier Assay; for Av % Inhibition: library MSI 22; for Avg % Inhibtion: library MSI 26
Procedure: (§1) The epithelial cell binding ability of compounds and mixtures obtained from synthetic combinatorial libraries was determined by competition assays. These assays were set up to measure the inhibition of binding of biotinylated UEA-1 to membrane preparations of the epithelial cell line Caco-2 (colon carcinoma cells-2), by compounds and mixtures of the combinatorial libraries. This cell line is a conventional model for epithelial cells.
(§2) Two competition inhibition assays were used in this case, namely single tier and two tier assays. These assays differed from each other in that in the single tier assay, the mixtures/compounds and the biotinylated UEA-1 were incubated together with the Caco-2 cell membrane preparations, while in case of the two-tier assay, the mixture/compounds were allowed to incubate alone with the cell membranes in the absence of biotinylated UEA-1, which was added in the next step. Addition of the extra step in the two-tier assay was to ensure that the compounds inhibiting the binding of biotinylated UEA-1 to the Caco-2 cell membranes were doing so by themselves binding to surface receptors on the Caco-2 cells and not to the biotinylated UEA-1. Each assay will be described in detail.
(§3) • 1. Confluent Caco-2 cell monolayers (grown in 75 cm^2 flasks for up to 1 week at 37° C. and 5% CO2) were washed twice in Dulbecco's PBS (DPBS). • 2. Cell monolayers were treated with 10 mM EDTA-DPBS for 5–10 min at 37° C. and cells were harvested by centrifugation at 1000 rpm for 5 min. • 3. Cells were washed 3 times in DPBS. • 4. […] The cells were homogenised for 30 sec. • 6. The homogenates were centrifuged in hard walled tubes at 40,000 rpm for 45 min at 4° C. • 7. […] The supernatant was removed and stored on ice. The procedure was repeated adding the second supernatant to the first. • 8. The protein concentration was determined using e.g. a Bio-Rad protein assay. • 9. All fractions were stored at −80° C. prior to use. Single Tier Assays: • 1. 96-well microtiter plates were coated with membrane preparations of Caco-2 cells either by allowing them to incubate on the plates for 2½ hours at room temperature or by incubating them overnight at 4° C. 100 μl of 10 μg/ml (in 0.05 M carbonate buffer, pH 9.6) of membrane preparation was added to each well. • 2. The plates were flicked out, patted dry and blocked with bovine serum albumin (BSA)/DPBS (200 μl/well) for 1 to 4 hours at room temperature after which they were washed three times in water. • 3. […] Control wells were also set up in which the Caco-2 cell membrane preparations were incubated with unconjugated UEA-1. […] Following overnight incubation the plates were washed thoroughly (3–6 times). The plates were flicked out, patted dry and biotinylated UEA-1 was detected with commercial Streptavidin conjugated to horseradish peroxidase (HRP) (CalBiochem). […] The plates were left to incubate for an hour at room temperature. • 6. The plates were then washed 3–6 times and the biotin-streptavidin binding was detected by adding an HRP substrate OPD (orthophenyl diamine) to each well. 100 μl/well of this substrate at a final concentration of 1.6 mg/ml was added to each well. Before adding to the wells, this substrate was activated by addition of 50 μl of 3% H2O2 per plate and the reaction was allowed to develop in the dark. • 7. The reaction was stopped by adding 50 μl of 4 N H2SO4 to each well after approximately 5–10 minutes or when sufficient colour had developed. The OD490 (absorbance at 490 nm) of each well was measured using a conventional 96 well plate reading spectrophotometer. Two Tier Assays: • 1. 96 well plates were coated with Caco-2 cell membrane preparations in the same manner as described in the single tier assay. • 2. […] 100 μl at these final concentrations were added to each well. • 4. The plates were then left to incubate overnight, a step that would allow the mixtures and compounds to interact with the Caco-2 cell membranes without the presence of the competitor (biotinylated UEA-1) itself. • 5. […]

[2] = system: UEA-1 binding sites on Caco-2 cell membrane preparations; test: Two tier competition assay: compound incubated alone with membranes, biotinylated UEA-1 added in next step; parameters: species or system human; conditions: for Av % Inhibition / Avg % Inhibition: Two Tier Assay; for Av % Inhibition: library MSI 22; for Avg % Inhibition: library MSI 26
Procedure: as §1, §2, §3

SMILES: CNC[C@@H](Cc1ccc2ccccc2c1)N(C)C[C@H](NC(=O)c1cc(O)c(O)c(O)c1)C(C)C [D-Napala, D-Val, Gallic Acid]
- Av % Inhibition ([1]; 62.5 μg/ml): 4.7%
- Av % Inhibition ([1]; 250 μg/ml): 26.8%
- Av % Inhibition ([2]; 62.5 μg/ml): 24.2%
- Av % Inhibition ([2]; 250 μg/ml): 46.9%

SMILES: CNC[C@@H](Cc1ccc2ccccc2c1)N(C)C[C@H](Cc1ccc(Cl)cc1)NC(=O)c1cc(O)c(O)c(O)c1 [D-Napala, L-pCl-Phe, Gallic Acid]
- Av % Inhibition ([1]; 62.5 μg/ml): −14.7%
- Av % Inhibition ([1]; 250 μg/ml): 7.4%
- Av % Inhibition ([2]; 62.5 μg/ml): 23.4%
- Av % Inhibition ([2]; 250 μg/ml): 43.3%

SMILES: CCC[C@H](CNC)N(C)C[C@H](NC(=O)c1cc(O)c(O)c(O)c1)C(C)C [D-Nve, D-Val, Gallic Acid]
- Av % Inhibition ([1]; 62.5 μg/ml): 13.7%
- Av % Inhibition ([1]; 250 μg/ml): 46%
- Av % Inhibition ([2]; 62.5 μg/ml): 12.1%
- Av % Inhibition ([2]; 250 μg/ml): 29.8%

SMILES: CCC[C@H](CNC)N(C)C[C@@H](CC1CCCCC1)NC(=O)c1cc(O)c(O)c(O)c1 [D-Nve, D-chAla, Gallic Acid]
- Av % Inhibition ([1]; 62.5 μg/ml): 22.0%
- Av % Inhibition ([1]; 250 μg/ml): 47.8%
- Av % Inhibition ([2]; 62.5 μg/ml): 20.6%
- Av % Inhibition ([2]; 250 μg/ml): 48.5%

SMILES: CCOc1ccc(C[C@H](CNC)N(C)C[C@@H](CCCNC(=N)NS(=O)(=O)c2ccc(C)cc2)NC(=O)c2cc(O)c(O)c(O)c2)cc1 [D-Tyr (Et), D-Arg(Tos), Gallic Acid]
- Av % Inhibition ([1]; 62.5 μg/ml): 27.2%
- Av % Inhibition ([1]; 250 μg/ml): 48%
- Av % Inhibition ([2]; 62.5 μg/ml): 30%
- Av % Inhibition ([2]; 250 μg/ml): 61%

SMILES: CCOc1ccc(C[C@H](CNC)N(C)C[C@H](CC2CCCCC2)NC(=O)c2cc(O)c(O)c(O)c2)cc1 [D-Tyr (Et), L-chAla, Gallic Acid]
- Av % Inhibition ([1]; 62.5 μg/ml): 8.5%
- Av % Inhibition ([1]; 250 μg/ml): 33.3%
- Av % Inhibition ([2]; 62.5 μg/ml): 31.8%
- Av % Inhibition ([2]; 250 μg/ml): 52.7%

SMILES: COc1cc(C(=O)OCCCN2CCCN(CCCOC(=O)c3cc(OC)c(OC)c(OC)c3)CC2)cc(OC)c1OC [Dilazep dihydrochloride, reference compound]
- Avg % Inhibtion ([1]; 62.5 μg/ml): 14.7%
- Avg % Inhibtion ([1]; 250 μg/ml): 10.4%
- Avg % Inhibition ([2]; 62.5 μg/ml): −25%
- Avg % Inhibition ([2]; 250 μg/ml): −25%

SMILES: Oc1cc(O)c2c(c1)O[C@H](c1cc(O)c(O)c(O)c1)[C@H](O)C2 [Epigallocatechin, reference compound]
- Avg % Inhibtion ([1]; 62.5 μg/ml): 10.1%
- Avg % Inhibtion ([1]; 250 μg/ml): 0%
- Avg % Inhibition ([2]; 62.5 μg/ml): −12%
- Avg % Inhibition ([2]; 250 μg/ml): −10%

SMILES: O=C(O[C@@H]1Cc2c(O)cc(O)cc2O[C@H]1c1cc(O)c(O)c(O)c1)c1cc(O)c(O)c(O)c1 [Gallocatechin gallate, reference compound]
- Avg % Inhibtion ([1]; 62.5 μg/ml): 54.6%
- Avg % Inhibtion ([1]; 250 μg/ml): 33.6%
- Avg % Inhibition ([2]; 62.5 μg/ml): 7%
- Avg % Inhibition ([2]; 250 μg/ml): 14.1%

SMILES: CNC[C@H](Cc1ccc2ccccc2c1)N(C)C[C@@H](Cc1ccc2ccccc2c1)NC(=O)c1cc(O)c(O)c(O)c1 [L-NapAla, D-Napala, Gallic Acid]
- Av % Inhibition ([1]; 62.5 μg/ml): −3%
- Av % Inhibition ([1]; 250 μg/ml): 7%
- Av % Inhibition ([2]; 62.5 μg/ml): 22.0%
- Av % Inhibition ([2]; 250 μg/ml): 44.6%

SMILES: CNC[C@H](Cc1ccc2ccccc2c1)N(C)C[C@H](Cc1ccc(Cl)cc1)NC(=O)c1cc(O)c(O)c(O)c1 [L-NapAla, L-pCl-Phe, Gallic Acid]
- Av % Inhibition ([1]; 62.5 μg/ml): 31.5%
- Av % Inhibition ([1]; 250 μg/ml): 46.9%
- Av % Inhibition ([2]; 62.5 μg/ml): 26.7%
- Av % Inhibition ([2]; 250 μg/ml): 54.7%

SMILES: CCCCCCCCCCCCOC(=O)c1cc(O)c(O)c(O)c1 [Lauryl gallate, reference compound]
- Avg % Inhibtion ([1]; 62.5 μg/ml): 39.1%
- Avg % Inhibtion ([1]; 250 μg/ml): 22.5%
- Avg % Inhibition ([2]; 62.5 μg/ml): 20.4%
- Avg % Inhibition ([2]; 250 μg/ml): 47.9%

- IC 50 (ug/ml) 1st tier ([1]; Table 8, galloyl constructs): 70 µg/mL (≈ 47.9 µM)
- IC50 ([1]; Table 8, galloyl constructs, read-out: IC 50 (uM) 1st tier (converted)): 48 µM
- IC 50 (ug/ml) 2nd tier ([2]; Table 8, galloyl constructs): 15 µg/mL (≈ 10.3 µM)
- IC50 ([2]; Table 8, galloyl constructs, read-out: IC 50 (uM) 2nd tier): 10 µM
SMILES: CC(=O)N[C@H](CCCCNC(=O)c1cc(O)c(O)c(O)c1)C(=O)N[C@H](CCCCNC(=O)c1cc(O)c(O)c(O)c1)C(=O)N[C@H](CCCCNC(=O)c1cc(O)c(O)c(O)c1)C(=O)N[C@H](CCCCNC(=O)c1cc(O)c(O)c(O)c1)C(=O)N[C@H](CCCCNC(=O)c1cc(O)c(O)c(O)c1)C(N)=O [MSI 30 #8] (Ac-[dK](Galloyl)[dK](Galloyl)[dK](Galloyl)[dK](Galloyl)[dK](Galloyl)-NH2)
